Tested on: K12877-001-R-J1-PDC complex spheroid viability
Assay: Anticancer human tumor K12877-001-R-J1-PDC patient-derived lung adenocarcinoma cell line growth inhibition [RAS]
Conditions: for IC50: curve of first compound; for viability, T/C: stronger effect = lower value
Excerpt: RAS pathway inhibitors in Combinations in Complex Spheroids
A high-throughput screen of multi-cell type tumor spheroids was designed to identify active combinations of RAS pathway inhibitors and targeted small molecules. Complex spheroids include a stromal component modeled by human endothelial cells (HUVEC) and fibroblasts modeled by human mesenchymal stem cells (MSCs). The concentration ranges selected for each drug and investigational agent were based upon clinically achievable concentrations if the clinical Cmax of the agent was known.
Compounds. The drugs and investigational agents: abemaciclib (NSC768073), cobimetinib (NSC768068), divarasib (GDC6063, NSC841802), docetaxel (NSC628503), GDC-1971 (RLY-1971, NSC841576), gemcitabine (NSC613327), inavolisib (NSC800729), ipatasertib (NSC767898), KB-0742 (NSC834161), MRTX-1133 (NSC836407), osimertinib (NSC779217), RMC-4630 (NSC839698), RMC-6236 (NSC851965), RMC-6291 (NSC852671), Ro-3306 (NSC812927), sapanisertib (NSC764658), SN-38 (NSC673596), staurosporine (NSC755774), SY5609 (NSC837396), and tovorafenib (DAY101, NSC766906), were obtained from the National Cancer Institute (NCI) Developmental Therapeutics Program Chemical Repository. The FDA-approved anticancer drug set is available from the NCI Developmental Therapeutics Program. […] The stock solutions were prepared in dimethyl sulfoxide (DMSO, Sigma-Aldrich, St. Louis, MO, cat. D2650) at 800-fold the tested concentration and stored at -70 degrees C prior to their use. All drugs and investigational agents were tested over a range starting from a high concentration at or near the clinical Cmax and decreasing in half-log increments. If the clinical Cmax for an agent had not been determined, the highest concentration tested was 10 microM.
Cell Culture. All cells were maintained in an incubator at 37 degrees C and 5% CO2 with 95% humidity. The PDC lines were cultured according to standard operating procedures established by the NCI PDMR. All PDCs were thawed and cultured in Matrigel-coated flasks prepared with a working solution of 1X Ham's F-12 nutrient mix, without supplementation (Invitrogen, Waltham, MA, cat. 11765054), 100 U/mL penicillin-streptomycin (Invitrogen, cat. 15140122), and 2.5% Matrigel (Corning Inc., Corning, NY, cat. 354248) for the first three passages. The 362531-283-R-J2-PDC and 782815-120-R-J1-PDC lines were cultured in 6C/Colon 1B media, which includes advanced DMEM/F-12 (Thermo Fisher Scientific, cat. 12634028), 10 mM HEPES (Thermo Fisher Scientific, cat. 15630080), 1X GlutaMAX supplement (Thermo Fisher Scientific, cat. 35050061), 0.1 mg/mL primocin (InvivoGen, San Diego, CA, cat. ant-pm-2), 10% defined fetal bovine serum, heat inactivated (HyClone Laboratories Inc., Logan, UT, cat. SH30070.03HI), 50% L-WRN conditioned media (ATCC, cat. CRL-3276), 1.25 mM N-Acetyl-L-cysteine (Sigma-Aldrich, cat. A9165), 10 mM nicotinamide (Sigma-Aldrich, cat. N0636), 1X B-27 supplement (Thermo Fisher Scientific, cat. 17504044), 1X N-2 supplement (Thermo Fisher Scientific, cat. 17502048), 50 ng/mL human EGF (Thermo Fisher Scientific, cat. PHG0311), and 10 microM Y-27632 dihydrochloride (Tocris Bioscience, cat. 1254). The K12877-001-R-J1-PDC line was cultured in 6I media, which includes all 6C/Colon 1B media plus 10 ng/mL human FGF-10 (PeproTech, cat. 100-26), 1 ng/mL human FGF-2 (PeproTech, cat. 100-18B), 1 µM prostaglandin E2 (Tocris Bioscience, cat. 2296), […] hydrocortisone (Sigma-Aldrich, cat. H4001), and […] bovine insulin (Sigma-Aldrich, cat. I6634). The K86415-001-R-J1-PDC line was cultured in 6D media, which includes all 6C/Colon 1B media components minus the L-WRN conditioned media. The 485176-168-R4-J1-PDC was cultured in PANC media, which includes all 6C/Colon 1B media plus 100 ng/mL human FGF-10 (PeproTech, cat. 100-26), 500 nM SB-431542 (Selleckchem, cat. S1067), and 10 nM gastrin (Tocris Bioscience, cat. 3006). […]
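Also: spheroids exposed to agents for one week before readout.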

## C=CC(=O)Nc1cc(Nc2nccc(-c3cn(C)c4ccccc34)n2)c(OC)cc1N(C)CCN(C)C + CCn1c(-c2cc(N3CCN(C)CC3)cnc2C(C)OC)c2c3cc(ccc31)-c1csc(n1)CC(NC(=O)C1CC1C)C(=O)N1CCCC(N1)C(=O)OCC(C)(C)C2
Second compound 0.000949 µM
  IC50: > 1 µM
Second compound 0.003 µM
  IC50: > 1 µM
Second compound 0.00949 µM
  IC50: > 1 µM
Second compound 0.03 µM
  IC50: > 1 µM
Second compound 0.0949 µM
  IC50: > 1 µM
Second compound 0.3 µM
  IC50: > 1 µM
Second compound 0.000949 µM, first compound 0.00316 µM
  viability, T/C: 90.8%
Second compound 0.000949 µM, first compound 0.01 µM
  viability, T/C: 69.3%
Second compound 0.000949 µM, first compound 0.0316 µM
  viability, T/C: 83.4%
Second compound 0.000949 µM, first compound 0.1 µM
  viability, T/C: 78.9%
Second compound 0.000949 µM, first compound 0.316 µM
  viability, T/C: 82.4%
Second compound 0.000949 µM, first compound 1 µM
  viability, T/C: 71.3%
Second compound 0.003 µM, first compound 0.00316 µM
  viability, T/C: 73.7%
Second compound 0.003 µM, first compound 0.01 µM
  viability, T/C: 70.3%
Second compound 0.003 µM, first compound 0.0316 µM
  viability, T/C: 66.1%
Second compound 0.003 µM, first compound 0.1 µM
  viability, T/C: 74.4%
Second compound 0.003 µM, first compound 0.316 µM
  viability, T/C: 74.9%
Second compound 0.003 µM, first compound 1 µM
  viability, T/C: 72%
Second compound 0.00949 µM, first compound 0.00316 µM
  viability, T/C: 82.9%
Second compound 0.00949 µM, first compound 0.01 µM
  viability, T/C: 71.4%
Second compound 0.00949 µM, first compound 0.0316 µM
  viability, T/C: 69%
Second compound 0.00949 µM, first compound 0.1 µM
  viability, T/C: 69.6%
Second compound 0.00949 µM, first compound 0.316 µM
  viability, T/C: 63%
Second compound 0.00949 µM, first compound 1 µM
  viability, T/C: 73%
Second compound 0.03 µM, first compound 0.00316 µM
  viability, T/C: 89.3%
Second compound 0.03 µM, first compound 0.01 µM
  viability, T/C: 83.2%
Second compound 0.03 µM, first compound 0.0316 µM
  viability, T/C: 80.4%
Second compound 0.03 µM, first compound 0.1 µM
  viability, T/C: 75.9%
Second compound 0.03 µM, first compound 0.316 µM
  viability, T/C: 90.2%
Second compound 0.03 µM, first compound 1 µM
  viability, T/C: 93.1%
Second compound 0.0949 µM, first compound 0.00316 µM
  viability, T/C: 106%
Second compound 0.0949 µM, first compound 0.01 µM
  viability, T/C: 104%
Second compound 0.0949 µM, first compound 0.0316 µM
  viability, T/C: 125%
Second compound 0.0949 µM, first compound 0.1 µM
  viability, T/C: 97.7%
Second compound 0.0949 µM, first compound 0.316 µM
  viability, T/C: 87.7%
Second compound 0.0949 µM, first compound 1 µM
  viability, T/C: 84.7%
Second compound 0.3 µM, first compound 0.00316 µM
  viability, T/C: 90%
Second compound 0.3 µM, first compound 0.01 µM
  viability, T/C: 96.1%
Second compound 0.3 µM, first compound 0.0316 µM
  viability, T/C: 93%
Second compound 0.3 µM, first compound 0.1 µM
  viability, T/C: 89.8%
Second compound 0.3 µM, first compound 0.316 µM
  viability, T/C: 82.5%
Second compound 0.3 µM, first compound 1 µM
  viability, T/C: 73.7%

## Cc1nc(N2CCC3(CC2)COC(C)C3N)c(CO)nc1Sc1ccnc(N)c1Cl (centres undefined) + C#Cc1c(F)ccc2cc(O)cc(-c3ncc4c(N5CC6CCC(C5)N6)nc(OCC56CCCN5CC(F)C6)nc4c3F)c12
Second compound 0.0316 µM
  IC50: > 10 µM
Second compound 0.1 µM
  IC50: > 10 µM
Second compound 0.316 µM
  IC50: > 10 µM
Second compound 1 µM
  IC50: > 10 µM
Second compound 3.16 µM
  IC50: > 10 µM
Second compound 10 µM
  IC50: > 10 µM
Second compound 0.0316 µM, first compound 0.0316 µM
  viability, T/C: 94.3%
Second compound 0.0316 µM, first compound 0.1 µM
  viability, T/C: 97%
Second compound 0.0316 µM, first compound 0.316 µM
  viability, T/C: 99%
Second compound 0.0316 µM, first compound 1 µM
  viability, T/C: 95.1%
Second compound 0.0316 µM, first compound 3.16 µM
  viability, T/C: 103%
Second compound 0.0316 µM, first compound 10 µM
  viability, T/C: 77.5%
Second compound 0.1 µM, first compound 0.0316 µM
  viability, T/C: 109%
Second compound 0.1 µM, first compound 0.1 µM
  viability, T/C: 110%
Second compound 0.1 µM, first compound 0.316 µM
  viability, T/C: 92%
Second compound 0.1 µM, first compound 1 µM
  viability, T/C: 87.7%
Second compound 0.1 µM, first compound 3.16 µM
  viability, T/C: 93.5%
Second compound 0.1 µM, first compound 10 µM
  viability, T/C: 84.1%
Second compound 0.316 µM, first compound 0.0316 µM
  viability, T/C: 107%
Second compound 0.316 µM, first compound 0.1 µM
  viability, T/C: 98.8%
Second compound 0.316 µM, first compound 0.316 µM
  viability, T/C: 91.2%
Second compound 0.316 µM, first compound 1 µM
  viability, T/C: 92.9%
Second compound 0.316 µM, first compound 3.16 µM
  viability, T/C: 78.5%
Second compound 0.316 µM, first compound 10 µM
  viability, T/C: 65.7%
Second compound 1 µM, first compound 0.0316 µM
  viability, T/C: 101%
Second compound 1 µM, first compound 0.1 µM
  viability, T/C: 92.5%
Second compound 1 µM, first compound 0.316 µM
  viability, T/C: 93.1%
Second compound 1 µM, first compound 1 µM
  viability, T/C: 95.7%
Second compound 1 µM, first compound 3.16 µM
  viability, T/C: 82.9%
Second compound 1 µM, first compound 10 µM
  viability, T/C: 69.5%
Second compound 3.16 µM, first compound 0.0316 µM
  viability, T/C: 100%
Second compound 3.16 µM, first compound 0.1 µM
  viability, T/C: 94%
Second compound 3.16 µM, first compound 0.316 µM
  viability, T/C: 92.4%
Second compound 3.16 µM, first compound 1 µM
  viability, T/C: 79.7%
Second compound 3.16 µM, first compound 3.16 µM
  viability, T/C: 79.7%
Second compound 3.16 µM, first compound 10 µM
  viability, T/C: 69.7%
Second compound 10 µM, first compound 0.0316 µM
  viability, T/C: 93.6%
Second compound 10 µM, first compound 0.1 µM
  viability, T/C: 86.1%
Second compound 10 µM, first compound 0.316 µM
  viability, T/C: 83.9%
Second compound 10 µM, first compound 1 µM
  viability, T/C: 83.4%
Second compound 10 µM, first compound 3.16 µM
  viability, T/C: 86.9%
Second compound 10 µM, first compound 10 µM
  viability, T/C: 84.8%
